Reference: publication PMC12597549 (Drug Metabolism and Disposition, 2025)
Changes are numbered by the printed parent chain. “Also recorded” adds a separate entry of the source. Like-named read-outs stand apart in the source and are kept apart here.

Legend:
UGT2B7^268His = target: T1, UGT2B7^268His (Homo sapiens, UniProt P16662, Y268H); experiment: Inhibition of hydromorphone glucuronidation (HM3G formation) by cannabinoids in rUGT2B7^268His microsomes; format: biochemical; conditions: for inhibition of HM3G formation: 100 μM cannabinoid, 400 μM hydromorphone, 2% BSA, vs vehicle control; for IC50: IC50 corrected for nonspecific binding (fu,inc from refs 32,33; 11-OH-THC fu,inc as surrogate for 7-OH-CBD and 7-COOH-CBD), mean ± SD
T1 construct: expressed in transfected cells; microsomal membrane fraction
T1 sequence (P16662 24-529 Y268H): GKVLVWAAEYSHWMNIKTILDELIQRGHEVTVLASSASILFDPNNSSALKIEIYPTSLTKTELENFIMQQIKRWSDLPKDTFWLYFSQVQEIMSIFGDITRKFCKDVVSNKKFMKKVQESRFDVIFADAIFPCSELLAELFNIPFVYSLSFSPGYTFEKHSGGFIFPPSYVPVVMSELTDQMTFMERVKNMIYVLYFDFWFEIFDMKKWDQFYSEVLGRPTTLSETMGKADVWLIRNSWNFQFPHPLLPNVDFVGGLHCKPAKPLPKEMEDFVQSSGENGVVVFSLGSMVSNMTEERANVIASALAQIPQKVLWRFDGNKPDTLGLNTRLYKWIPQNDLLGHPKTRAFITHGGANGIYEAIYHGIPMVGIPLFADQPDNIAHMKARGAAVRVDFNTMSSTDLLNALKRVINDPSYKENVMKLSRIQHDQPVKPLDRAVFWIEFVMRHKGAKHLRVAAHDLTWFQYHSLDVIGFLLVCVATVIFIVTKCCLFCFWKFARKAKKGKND

[1] = system: UGT2B7-mediated hydromorphone metabolism; experiment: Static mechanistic IVIVE modeling of cannabinoid-hydromorphone drug interaction (AUCR); set-up: species or system human; conditions: after inhalation and oral consumption of THC and CBD
[2] = target: T2, UGT2B7 in pooled human liver microsomes (HLM) (Homo sapiens, UniProt P16662); experiment: Inhibition of UGT2B7-mediated hydromorphone glucuronidation by cannabinoids in pooled HLM (screening, IC50, Ki, inhibition type); format: biochemical; conditions: for inhibition of HM3G formation / inhibition of HM3G formation (in words): 100 μM cannabinoid, pooled HLM; for inhibition of HM3G formation: 400 μM hydromorphone, 2% BSA, vs vehicle control; for IC50: IC50 corrected for nonspecific binding (fu,inc from refs 32,33; 11-OH-THC fu,inc as surrogate for 7-OH-CBD and 7-COOH-CBD), mean ± SD; for Ki: Ki corrected for nonspecific binding (fu,inc from refs 32,33; 11-OH-THC fu,inc as surrogate for 7-OH-CBD), competitive model, mixed model for 11-OH-THC, read-out: Ki,u; for Inhibition Type: type of reversible inhibition of UGT2B7-mediated hydromorphone metabolism in HLM, Lineweaver-Burk replots
T2 sequence (P16662 24-529): T1 sequence (P16662 24-529 Y268H) with H245Y

UGT2B7^268Tyr [3] = conditions: from IC50,u values in rUGT2B7^268Tyr vs rUGT2B7^268His microsomes
UGT2B7^268Tyr [4] = target: T3, UGT2B7^268Tyr (Homo sapiens, UniProt P16662); conditions: rUGT2B7^268Tyr microsomes; for inhibition of HM3G formation: 100 μM cannabinoid, 400 μM hydromorphone, 2% BSA, vs vehicle control; for IC50: read-out: IC50,u, IC50 corrected for nonspecific binding (fu,inc from refs 32,33; 11-OH-THC fu,inc as surrogate for 7-OH-CBD), mean ± SD
T3 sequence (P16662 24-529): T1 sequence (P16662 24-529 Y268H) with H245Y

[5] = Estimated maximum unbound hepatic inlet plasma concentrations of cannabinoids after oral or inhaled THC or CBD; set-up: species or system human; conditions: doses and Cmax from Bansal et al., 2022, read-out: Cmax,hepatic inlet,u
Source text: [I]h is the inhibitor concentration in the liver and is defined as follows:(7) [I]h=fu,p×(Cmax+Fa×Fg×Ka×Dose/Qh×Rb) where fu,p is the unbound fraction of inhibitor in plasma, and Cmax is the maximal total (free and bound) inhibitor concentration in the plasma.

CYP1A2 [6] = system: CYP1A2; set-up: method as in Bansal et al., 2023; conditions: enzyme kinetic (HLM); ref Bansal et al., 2023; cited from earlier work
[7] = ref Bansal et al., 2022, cited from earlier work
CYP2C19 [8] = system: CYP2C19; set-up: method as in Bansal et al., 2020; conditions: ref Bansal et al., 2020, read-out: KI,u (binding-corrected half-maximal inactivation concentration); cited from earlier work
CYP1A2 [9] = system: CYP1A2; set-up: method as in Bansal et al., 2020; conditions: ref Bansal et al., 2020, read-out: KI,u (binding-corrected half-maximal inactivation concentration); cited from earlier work
CYP2C9 = system: CYP2C9; set-up: method as in Bansal et al., 2023; conditions: enzyme kinetic (HLM); ref Bansal et al., 2023; cited from earlier work
UGT2B7 [10] = system: UGT2B7; set-up: method as in Bansal et al., 2023; conditions: enzyme kinetic (HLM); ref Bansal et al., 2023; cited from earlier work
CYP3A4 = system: CYP3A4; set-up: method as in Bansal et al., 2023; conditions: enzyme kinetic (HLM); ref Bansal et al., 2023; cited from earlier work
CYP2C8 = system: CYP2C8; set-up: method as in Bansal et al., 2023; conditions: enzyme kinetic (HLM); ref Bansal et al., 2023; cited from earlier work
CYP3A = system: CYP3A; set-up: method as in Bansal et al., 2020; conditions: ref Bansal et al., 2020, read-out: KI,u (binding-corrected half-maximal inactivation concentration); cited from earlier work
[11] = set value for static model, cited from earlier work; for ka (first-order absorption rate constant): ref Cox et al., 2019
UGT2B7^268Tyr [12] = target: T3, UGT2B7^268Tyr; experiment: in vitro
CYP2B6 = system: CYP2B6; set-up: method as in Bansal et al., 2023; conditions: enzyme kinetic (HLM); ref Bansal et al., 2023; cited from earlier work
[13] = cannabidiol PBPK input; ref ChEMBL database (https://www.ebi.ac.uk/); cited from earlier work
CYP2D6 = system: CYP2D6; set-up: method as in Bansal et al., 2023; conditions: enzyme kinetic (HLM); ref Bansal et al., 2023; cited from earlier work
UGT1A9 = system: UGT1A9; set-up: method as in Bansal et al., 2023; conditions: enzyme kinetic (HLM); ref Bansal et al., 2023; cited from earlier work
UGT2B7 [14] = target: T4, UGT2B7 (Homo sapiens, UniProt P16662); experiment: Inhibition of UGT2B7-mediated hydromorphone glucuronidation by cannabinoids in pooled HLM (screening, IC50, Ki, inhibition type); format: biochemical; conditions: human, pooled human liver microsomes
T4 sequence (P16662 24-529): T1 sequence (P16662 24-529 Y268H) with H245Y

CYP2C19 [15] = system: CYP2C19; set-up: method as in Bansal et al., 2023; conditions: enzyme kinetic (HLM); ref Bansal et al., 2023; cited from earlier work
[16] = first-order absorption model, fasted
[17] = probe hydromorphone 400 μM (HM3G formation)

## 11-hydroxy (OH)-Δ^9-THC [11-OH-THC]
UGT2B7^268His
  inhibition of HM3G formation: 98%
  IC50: 0.36 ± 0.03 µM
[1]
  increase in hydromorphone exposure (static modeling): > 1.25 fold
[2]
  inhibition of HM3G formation: 96%
  Inhibition Type: mixed type inhibition
[2]; HLM, GraphPad mixed inhibition model
  α value (mixed inhibition model): > 1
[2]; HLM
  IC50: 1.08 ± 0.14 µM
  Ki: 1.01 ± 0.18 µM
UGT2B7^268Tyr [3]
  inhibitory effect against UGT2B7∗2, fold lower than with UGT2B7∗1: 2- to 3 fold
UGT2B7^268Tyr [4]
  inhibition of HM3G formation: 87%
  IC50: 0.84 ± 0.19 µM
[5]; THC 20 mg oral
  Cmax: 20 nM
[5]; THC 25 mg inhalation
  Cmax: 10 nM
[5]; THC 70 mg inhalation
  Cmax: 30 nM
[5]; THC 100 mg inhalation
  Cmax: 50 nM
[5]; THC 130 mg oral
  Cmax: 100 nM
[5]; THC 160 mg oral
  Cmax: 120 nM

## C=C(C)[C@@H]1CCC(C(=O)O)=C[C@H]1c1c(O)cc(CCCCC)cc1O [7-COOH-CBD]
UGT2B7^268His
  inhibition of HM3G formation: 60%
  IC50: 5.54 ± 3.67 µM
[2]
  inhibition of HM3G formation (in words): only minimal or moderate inhibition
[2]; HLM
  IC50: > 10 µM
UGT2B7^268Tyr [4]
  inhibition of HM3G formation: 41%
  inhibitory effect on hydromorphone metabolism for the UGT2B7∗2 variant (in words): little to no inhibitory effect

## C=C(C)[C@@H]1CCC(CO)=C[C@H]1c1c(O)cc(CCCCC)cc1O [7-OH-CBD, 7-hydroxycannabidiol]
UGT2B7^268His
  inhibition of HM3G formation: 82%
  IC50: 1.39 ± 0.77 µM
[1]
  increase in hydromorphone exposure (static modeling): > 1.25 fold
[2]
  inhibition of HM3G formation: 87%
  Inhibition Type: Competitive
[2]; HLM
  IC50: 0.95 ± 0.25 µM
  Ki: 0.74 ± 0.12 µM
UGT2B7^268Tyr [4]
  inhibition of HM3G formation: 77%
  IC50: 1.26 ± 0.93 µM
[5]; CBD 70 mg oral
  Cmax: 30 nM
[5]; CBD 700 mg oral
  Cmax: 340 nM
[5]; CBD 2000 mg oral
  Cmax: 980 nM

## CCCCCc1cc(O)c2c(c1)OC(C)(C)[C@@H]1CCC(C(=O)O)=C[C@@H]21 [11-COOH-THC, 11-nor-9-carboxy (COOH)-Δ^9-THC]
UGT2B7^268His
  inhibition of HM3G formation: 49%
[2]
  inhibition of HM3G formation (in words): only minimal or moderate inhibition; also recorded: did not show appreciable inhibition
UGT2B7^268Tyr [4]
  inhibition of HM3G formation: 27%
[5]; THC 20 mg oral
  Cmax: 190 nM
[5]; THC 25 mg inhalation
  Cmax: 70 nM
[5]; THC 70 mg inhalation
  Cmax: 180 nM
[5]; THC 100 mg inhalation
  Cmax: 260 nM
[5]; THC 130 mg oral
  Cmax: 1220 nM
[5]; THC 160 mg oral
  Cmax: 1500 nM

## C=C(C)[C@@H]1CCC(C)=C[C@H]1c1c(O)cc(CCCCC)cc1O [CBD, cannabidiol]
CYP1A2 [6]
  CLint, CYP: CYP1A2: 56 µL/min/mg of protein
[7]; fasted
  Lag time: 1.5^1 hr
[7]; [16]
  fa: 0.25^1
  ka: 0.55^1 1/hr
[7]
  Fraction unbound in plasma: 0.013
  Qgut: 10.24 L/h
  fugut: 0.013
CYP2C19 [8]
  KI (inactivation): 0.073 µM
CYP1A2 [9]
  KI (inactivation): 0.02 µM
CYP2C9
  CLint, CYP: CYP2C9: 93 µL/min/mg of protein
UGT2B7 [10]
  CLint, UGT: UGT2B7: 2162 µL/min/mg of protein
CYP3A4
  CLint, CYP: CYP3A4: 220 µL/min/mg of protein
CYP2C8
  CLint, CYP: CYP2C8: 51 µL/min/mg of protein
CYP3A
  KI (inactivation): 0.106 µM
[1]
  increase in hydromorphone exposure (static modeling): > 1.25 fold
[11]
  ka (first-order absorption rate constant): 0.02
UGT2B7^268Tyr [12]
  inhibition at 100 μM: 96%
CYP2B6
  CLint, CYP: CYP2B6: 46 µL/min/mg of protein
[13]
  Log P: 6.33
  pKa: 9.13
CYP2D6
  CLint, CYP: CYP2D6: 38 µL/min/mg of protein
UGT1A9
  CLint, UGT: UGT1A9: 541 µL/min/mg of protein
[2]
  Inhibition Type: Competitive
UGT2B7 [14]; [17]
  IC50: 0.14 ± 0.04 µM
  inhibition at 100 μM: 83%
UGT2B7 [14]; HLM, Ki corrected for nonspecific binding (fu,inc from refs 32,33; 11-OH-THC fu,inc as surrogate for 7-OH-CBD), competitive model, mixed model for 11-OH-THC, read-out: Ki,u
  Ki: 0.068 ± 0.003 µM
CYP2C19 [15]
  CLint, CYP: CYP2C19: 193 µL/min/mg of protein

## CCCCCc1cc(O)c2c(c1)OC(C)(C)[C@@H]1CCC(C)=C[C@@H]21 [THC, Δ^9-tetrahydrocannabinol, reference compound]
UGT2B7^268His
  inhibition of HM3G formation: 67%
  IC50: 2.92 ± 0.26 µM
[1]
  increase in hydromorphone exposure (static modeling): > 1.25 fold
[11]
  ka (first-order absorption rate constant): 0.02
[11]; ref Schwilke et al., 2009
  BP (blood to plasma ratio): 0.4
[2]
  inhibition of HM3G formation (in words): only minimal or moderate inhibition
  Inhibition Type: Competitive
[2]; HLM
  IC50: 2.5 ± 0.58 µM
  Ki: 0.17 ± 0.02 µM
UGT2B7^268Tyr [4]
  inhibition of HM3G formation: 45%
  inhibitory effect on hydromorphone metabolism for the UGT2B7∗2 variant (in words): little to no inhibitory effect
[5]; THC 20 mg oral
  Cmax: 30 nM
[5]; THC 25 mg inhalation
  Cmax: 250 nM
[5]; THC 70 mg inhalation
  Cmax: 690 nM
[5]; THC 100 mg inhalation
  Cmax: 990 nM
[5]; THC 130 mg oral
  Cmax: 200 nM
[5]; THC 160 mg oral
  Cmax: 240 nM
